Assay results from patent EP0100983A1, “Steroid compounds with choleretic activity, a process for their preparation, and therapeutic compounds which contain them as active principle” (PROTER S.p.A., priority 1982, dated 1984).
Structures can show the parent of a compound that is named as a salt.

Tests used:
Wistar rats = assay: Acute toxicity by oral administration in the rat; assay type: in vivo
Protocol: Acute toxicity was also tested by oral administration of the acid A and the salt B in the rat in comparison with ursodeoxycholic acid. 60 Wistar rats of the two sexes were used having an average weight of 200 g, divided randomly into three batches of 10 males and 10 females and treated orally by gastric probe with the following products: • batch 1: ursodeoxycholic acid (C) - 15% suspension in a 10% solution of gum arabic; […] equivalent to 3 g/kg of product; • batch 2: product (A) - 15% suspension in a 10% solution of gum arabic: 20 ml/kg equivalent to 3 g/kg of product; • batch 3: product (B) - 15% suspension in a 10% solution of gum arabic: 20 ml/kg equivalent to 3 g/kg of product.
The animals, kept under observation for two weeks, registered no case of death or other toxicity symptom.

[1] = test system: male albino rats of Wistar stock; assay: Choleretic activity in bile-duct (choledocus) cannulated rats, method of D'Armour and coll.: bile flow (test a) and bile dry residue (test b); assay type: in vivo; conditions: rat
Source text: By way of example, details are given of the activity of 3α,7β-dihydroxy-6/3-cholan-24-oyl acetic acid (A) and of its trimebutine salt (B) compared with ursodeoxycholic acid (C), using the method of D'Armour and coll. (J. Pharmacol. Exp. Theor. 133, 400 (1961)).
This method consists essentially of cannulating the choledocus of the treated animals and collecting the bile before and after treatment with the drugs.
24 male albino rats of Wistar stock were used having an average weight of 400 g and divided into 4 batches of 6 animals each.
In the method used, after the surgical cannulation, the bile was allowed to flow out for about 30-45 minutes in order to regulate the flow, after which the basic bile was collected for 60 minutes.
After this time, the drug was administered into the subpyloric duodenal tract at a dose of 0.5 mM/kg, and the bile was collected in suitable graduated test tubes, the samples of each animal being split into periods of exactly 60 minutes, for a time of 3 hours after treatment. The following were then determined for each animal: • a) the quantity of bile which had flown out after each hour, and • b) the dry residue obtained after drying each sample under vacuum.
The tested compounds were solubilised with stoichiometric quantities of M NaOH, to obtain solutions or suspensions at pH 10.
Physiological solution (S.F.) adjusted to pH 10 by M NaOH was used for the control group.
The data obtained in the described experiments by administering equimolar doses of the products A and B and of the comparison drug C are shown on the accompanying graphs.

guinea pig ileum = assay: In vitro antispastic activity on the guinea pig ileum against acetylcholine bromide; conditions: relative to trimebutine hydrochloride
Source text: Compound B was also used in "in vibro" antispastic activity tests on the guinea pig ileum, using acetylcholine bromide as […] in canparison with trimebutine hydrochloride.

`CC(CCC(=O)OCC(=O)O)C1CCC2C3C(O)CC4CC(O)CCC4(C)C3CCC12C` (stereo not drawn) [A, 3α,7β-dihydroxy-6β-cholan-24-oyl acetic acid] was tested, and the “tolerability when administered orally in a single dose” value (Wistar rats; single oral dose 3 g/kg) was “very well tolerated”, the “maximum intensity action on the bile flow” value ([1]; 0.5 mM/kg into the subpyloric duodenal tract, compared with ursodeoxycholic acid (C) at equal dose, Figure 1) was “practically equivalent to that of the comparison drug” and the “activity on the bile flow after 1 hour” value ([1]; 0.5 mM/kg intraduodenal, 1 hour after treatment, relative to comparison drug C, Figure 1) was “slightly less”. The “activity on the bile flow after 2 hours” value ([1]; 0.5 mM/kg intraduodenal, 2 hours after treatment, relative to comparison drug C, Figure 1) was “greater” and the “dry residual content of the bile (indicative of the bile salt content), maximum values” ([1]; 0.5 mM/kg intraduodenal, compared with ursodeoxycholic acid, Figure 2) was “practically equal to that obtained after treatment with ursodeoxycholic acid”.
With `CC(CCC(=O)OCC(=O)O)C1CCC2C3C(O)CC4CC(O)CCC4(C)C3CCC12C` (stereo not drawn) [Compound B, 2-dimethylamino-2-phenylbutyl 3,4,5-trimethoxybenzoate salt of 3α ,7β-dihydroxy-6β-cholan-24-oyl acetic acid] the “toxicity (concluding statement)” value (Wistar rats; oral) was “absolute absence of toxicity”, the “activity on the bile flow after 3 hours” value ([1]; 0.5 mM/kg intraduodenal, 3 hours after treatment, Figure 1) was “high” and the antispastic activity (guinea pig ileum) was “approximately double that of trimebutine”.
For `C[C@H](CCC(=O)O)[C@H]1CC[C@H]2[C@@H]3[C@@H](O)C[C@@H]4C[C@H](O)CC[C@]4(C)[C@H]3CC[C@]12C` [ursodeoxycholic acid, 3α ,7β-dihydroxy-6β-cholan-24-oic acid, reference compound], the “duration of the action” value ([1]; 0.5 mM/kg intraduodenal, bile dry residue test (Figure 2)) was 1 h.
